According to US9725442B2, “Heterocyclic derivative having PGD2 receptor antagonist activity” (Shionogi & Co., Ltd., priority 2011, dated 2017):

Experiments:
[1] = Solubility test (1% DMSO addition, artificial intestinal juice pH 6.8); type: physicochemical; settings: fassgf or other biorelevant, kinetic from dmso stock, artificial intestinal juice pH 6.8, 16 hours at 25° C.
Description: A 10 mmol/L solution of the compound of the present invention is prepared with DMSO, and 6 μL of the compound solution is added to 594 μL of an artificial intestinal juice (water and 118 mL of 0.2 mol/L NaOH reagent are added to 250 mL of 0.2 mol/L potassium dihydrogen phosphate reagent to reach 1000 mL) with a pH of 6.8. The mixture is left standing for 16 hours at 25° C., and the mixture is vacuum-filtered. The filtrate is two-fold diluted with methanol/water=1/1 (V/V), and the compound concentration in the filtrate is measured with HPLC or LC/MS/MS by the absolute calibration method.

DP receptor = DP receptor (Homo sapiens (Human), UniProt Q13258); experiment: DP inhibitory activity in human platelets (PGD2-induced cAMP increase in platelet rich plasma, HTRF); type: cell-based; settings: IC50 of PGD2 (300 nM)-induced cAMP increase, read-out: PRP
Description: Thirty milliliter of blood was drown from healthy human into a syringe preloaded with 1/9 volume of 3.8% citrate sodium. The blood was centrifuged with 180 g for 10 min at room temperature and the upper plasma layer was collected as platelet rich plasma (PRP). The PRP was transferred to plate and treated with 3-isobutyl-1-methylxanthin (IBMX; […]) for 5 min. Then the compounds of the present invention were added to the plate and after 10 min, 300 nM of PGD2 was added. The reaction was stopped with 1 mmol/l hydrogenchlolide after 2 min of PGD2 addition, and platelet was lysed by adding 12% Triton X-100. The concentration of cAMP in the supernatant of the platelet lysate was quantified using homogenous time resolved fluorescence (HTRF). Inhibition ratio was defined by cAMP increase with and without compound, and […] for each compound was calculated from inhibitory curve.

CYP3A4 = CYP3A4 (Homo sapiens (Human), UniProt P08684); experiment: CYP inhibition test, terfenedine hydroxylation; type: in vitro ADME; settings: pooled human hepatic microsome, 1 μmol/L terfenedine
From the text: (§1) Using commercially available pooled human hepatic microsome, and employing, as markers, 7-ethoxyresorufin O-deethylation (CYP1A2), tolbutamide methyl-hydroxylation (CYP2C9), mephenyloin 4′-hydroxylation (CYP2C19), dextromethorphan O-demethylation (CYP2D6), and terfenedine hydroxylation as typical substrate metabolism reactions of human main five CYP enzyme forms (CYP1A2, 2C9, 2C19, 2D6, 3A4), an inhibitory degree of each metabolite production amount by a compound of the present compound was assessed.
(§2) The reaction conditions were as follows: substrate, 0.5 μmol/L ethoxyresorufin (CYP1A2), 100 μmol/L tolbutamide (CYP2C9), 50 μmol/L S-mephenyloin (CYP2C19), 5 μmol/L dextromethorphan (CYP2D6), 1 μmol/L terfenedine (CYP3A4); reaction time, 15 minutes; reaction temperature, 37° C.; enzyme, pooled human hepatic microsome 0.2 mg protein/mL; concentration of a compound of the present invention, 1, 5, 10, 20 μmol/L (four points).
(§3) Each five kinds of substrates, human hepatic microsome, or a compound of the present invention in 50 mM Hepes buffer as a reaction mixture was added to a 96-well plate at the composition as described above, NADPH, as a cofactor was added to initiate metabolism reactions as markers and. After the incubation at 37° C. for 15 minutes, a methanol/acetonitrile=1/1 (v/v) solution was added to stop the reaction. After the centrifugation at 3000 rpm for 15 minutes, resorufin (CYP1A2 metabolite) in the supernatant was quantified by a fluorescent multilabel counter and tolbutamide hydroxide (CYP2C9 metabolite), mephenyloin 4′ hydroxide (CYP2C19 metabolite), dextrorphan (CYP2D6 metabolite), and terfenadine alcohol (CYP3A4 metabolite) were quantified by LC/MS/MS.

CYP1A2 = CYP1A2 (Homo sapiens (Human), UniProt P05177); experiment: CYP inhibition test, 7-ethoxyresorufin O-deethylation; type: in vitro ADME; settings: pooled human hepatic microsome, 0.5 μmol/L ethoxyresorufin
From the text: as §1, §2, §3

CYP2C9 = CYP2C9 (Homo sapiens (Human), UniProt P11712); experiment: CYP inhibition test, tolbutamide methyl-hydroxylation; type: in vitro ADME; settings: pooled human hepatic microsome, 100 μmol/L tolbutamide
From the text: as §1, §2, §3

CRTH2 = CRTH2 (Homo sapiens (Human), UniProt Q9Y5Y4); experiment: CRTH2 inhibitory activity in CRTH2-expressing cells (PGD2-induced intracellular calcium increase, K562); type: cell-based; settings: 200 nM PGD2, read-out: IC50, inhibition of intracellular calcium concentration increase induced by PGD2
Description: CRTH2 inhibitory activities of compounds were determined as inhibition activity of intra-cellular calcium concentration increase induced by PGD2 in CRTH2-expressing cells.
CRTH2-expressing K562 cells were suspended at concentration of 2×10^6 cells/ml in buffer (10 mM HEPES, pH 7.4, 0.1% Bovine serum albumin). Cells were incubated with […] (4 μM) for 30 min at room temperature. Cells were washed, resuspended and mixed with various concentration of compounds of the present invention. After 2 min, cells were treated with 200 nM of PGD2. Then intracellular calcium concentration was measured using intracellular ion analyzer (FDSS3000). Inhibition ratio was defined by comparing intracellular calcium concentration increase with and without compound, and IC50 for each compound was calculated from inhibitory curve.

CYP2C19 = CYP2C19 (Homo sapiens (Human), UniProt P33261); experiment: CYP inhibition test, mephenyloin 4'-hydroxylation; type: in vitro ADME; settings: pooled human hepatic microsome, 50 μmol/L S-mephenyloin
From the text: as §1, §2, §3

Human DP1 receptor = Human DP1 receptor (Homo sapiens (Human), UniProt Q13258); experiment: Human DP1 inhibitory activity in DP1-expressing cell (PGD2-induced cAMP); type: cell-based
Description: Compounds were categorized as AA (cAMP is less than 100 nM) and A (cAMP is more than 100 nM and less than 5000 nM) as shown in Table 99 and 100.

[2] = Metabolism stability test; type: in vitro ADME; settings: human liver microsomes, 30 minutes, 37° C., NADPH, 0.5 μmol/L of the compound
Description: Using a commercially available pooled human hepatic microsomes, a compound of the present invention was reacted for a constant time, a remaining rate was calculated by comparing a reacted sample and an unreacted sample, thereby, a degree of metabolism in liver was assessed.
A reaction was performed (oxidative reaction) at 37° C. for 0 minute or 30 minutes in the presence of 1 mmol/L NADPH in 0.2 mL of a buffer (50 mmol/L Tris-HCl pH 7.4, 150 mmol/L potassium chloride, 10 mmol/L magnesium chloride) containing 0.5 mg protein/mL of human liver microsomes. After the reaction, 50 μL of the reaction mixture was added to 100 μL of a methanol/acetonitrile=1/1 (v/v), mixed and centrifuged at 3000 rpm for 15 minutes. The compound of the present invention in the supernatant was quantified by LC/MS/MS, and a remaining amount of the compound of the present invention after the reaction was calculated, letting a compound amount at 0 minute reaction time to be 100%. Glucuronidation reaction was in the presence of 5 mM UDP-glucuronic acid in place of NADPH, followed by similar operations.

[3] = IC50 of PGD2 (60 nM)-induced cAMP increase, human DP1 receptor expressing Jurkut cell
[4] = category of cAMP IC50, human DP1 receptor expressing Jurkut cell

CYP3A4, sequence (P08684 whole entry): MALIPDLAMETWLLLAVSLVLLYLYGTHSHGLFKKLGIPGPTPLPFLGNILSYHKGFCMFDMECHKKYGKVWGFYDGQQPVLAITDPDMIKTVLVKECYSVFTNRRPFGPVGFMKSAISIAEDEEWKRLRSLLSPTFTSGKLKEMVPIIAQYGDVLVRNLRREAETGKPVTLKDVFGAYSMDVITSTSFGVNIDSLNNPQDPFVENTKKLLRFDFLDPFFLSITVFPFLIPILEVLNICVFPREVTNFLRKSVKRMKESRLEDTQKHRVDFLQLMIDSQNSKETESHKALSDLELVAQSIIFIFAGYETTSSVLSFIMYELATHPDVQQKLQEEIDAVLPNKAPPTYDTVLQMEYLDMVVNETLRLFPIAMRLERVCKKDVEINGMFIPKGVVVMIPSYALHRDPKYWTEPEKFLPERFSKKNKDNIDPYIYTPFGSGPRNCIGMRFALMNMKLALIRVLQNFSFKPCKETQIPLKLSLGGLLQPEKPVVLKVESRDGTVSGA
CYP2C19, sequence (P33261 whole entry): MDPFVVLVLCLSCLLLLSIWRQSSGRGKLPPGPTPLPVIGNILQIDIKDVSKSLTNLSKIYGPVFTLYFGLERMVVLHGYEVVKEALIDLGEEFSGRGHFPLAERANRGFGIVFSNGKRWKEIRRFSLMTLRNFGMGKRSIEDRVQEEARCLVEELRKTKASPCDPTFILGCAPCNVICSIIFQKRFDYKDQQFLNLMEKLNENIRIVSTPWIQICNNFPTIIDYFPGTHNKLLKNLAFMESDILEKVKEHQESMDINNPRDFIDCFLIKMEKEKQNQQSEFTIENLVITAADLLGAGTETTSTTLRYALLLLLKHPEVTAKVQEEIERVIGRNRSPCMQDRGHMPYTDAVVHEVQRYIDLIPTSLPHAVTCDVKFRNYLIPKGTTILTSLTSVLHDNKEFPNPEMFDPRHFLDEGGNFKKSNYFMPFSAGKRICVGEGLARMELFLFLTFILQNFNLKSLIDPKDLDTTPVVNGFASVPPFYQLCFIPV
CRTH2, sequence (Q9Y5Y4 whole entry): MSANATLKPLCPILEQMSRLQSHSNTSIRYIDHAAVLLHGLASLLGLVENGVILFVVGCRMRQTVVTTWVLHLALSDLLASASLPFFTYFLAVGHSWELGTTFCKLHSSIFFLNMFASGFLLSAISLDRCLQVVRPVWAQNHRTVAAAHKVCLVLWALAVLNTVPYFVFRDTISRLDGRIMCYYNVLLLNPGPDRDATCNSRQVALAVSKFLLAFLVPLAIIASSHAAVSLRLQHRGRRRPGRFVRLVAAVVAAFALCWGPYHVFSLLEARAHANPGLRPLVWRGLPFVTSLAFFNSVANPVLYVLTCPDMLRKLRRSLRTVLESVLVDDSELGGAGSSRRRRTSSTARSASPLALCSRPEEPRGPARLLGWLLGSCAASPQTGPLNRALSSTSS
CYP1A2, sequence (P05177 whole entry): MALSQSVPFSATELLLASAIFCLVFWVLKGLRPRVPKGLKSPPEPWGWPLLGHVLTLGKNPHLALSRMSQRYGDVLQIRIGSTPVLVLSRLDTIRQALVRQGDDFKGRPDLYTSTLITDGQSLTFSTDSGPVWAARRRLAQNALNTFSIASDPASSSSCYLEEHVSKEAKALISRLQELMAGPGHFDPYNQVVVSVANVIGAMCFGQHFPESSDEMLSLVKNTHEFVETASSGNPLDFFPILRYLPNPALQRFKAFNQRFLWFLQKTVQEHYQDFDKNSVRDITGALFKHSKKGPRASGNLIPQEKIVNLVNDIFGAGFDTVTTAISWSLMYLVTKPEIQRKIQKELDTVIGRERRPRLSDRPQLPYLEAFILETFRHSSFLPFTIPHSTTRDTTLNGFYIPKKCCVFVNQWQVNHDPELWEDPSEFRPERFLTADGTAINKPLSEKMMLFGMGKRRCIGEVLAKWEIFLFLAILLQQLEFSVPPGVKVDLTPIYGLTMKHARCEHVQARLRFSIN
CYP2C9, sequence (P11712 whole entry): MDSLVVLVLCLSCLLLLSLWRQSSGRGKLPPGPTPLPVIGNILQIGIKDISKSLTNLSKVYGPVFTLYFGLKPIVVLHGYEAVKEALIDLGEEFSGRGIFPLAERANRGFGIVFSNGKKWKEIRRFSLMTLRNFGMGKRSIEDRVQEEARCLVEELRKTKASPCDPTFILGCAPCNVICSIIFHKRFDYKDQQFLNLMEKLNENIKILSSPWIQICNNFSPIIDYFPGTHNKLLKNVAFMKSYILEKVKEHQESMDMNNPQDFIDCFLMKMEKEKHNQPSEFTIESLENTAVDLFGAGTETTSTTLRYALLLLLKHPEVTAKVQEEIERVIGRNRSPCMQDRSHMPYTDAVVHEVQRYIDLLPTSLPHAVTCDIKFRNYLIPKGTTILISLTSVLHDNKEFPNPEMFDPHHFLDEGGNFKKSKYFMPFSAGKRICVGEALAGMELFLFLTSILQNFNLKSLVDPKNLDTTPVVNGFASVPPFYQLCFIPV
DP receptor, sequence (Q13258 whole entry): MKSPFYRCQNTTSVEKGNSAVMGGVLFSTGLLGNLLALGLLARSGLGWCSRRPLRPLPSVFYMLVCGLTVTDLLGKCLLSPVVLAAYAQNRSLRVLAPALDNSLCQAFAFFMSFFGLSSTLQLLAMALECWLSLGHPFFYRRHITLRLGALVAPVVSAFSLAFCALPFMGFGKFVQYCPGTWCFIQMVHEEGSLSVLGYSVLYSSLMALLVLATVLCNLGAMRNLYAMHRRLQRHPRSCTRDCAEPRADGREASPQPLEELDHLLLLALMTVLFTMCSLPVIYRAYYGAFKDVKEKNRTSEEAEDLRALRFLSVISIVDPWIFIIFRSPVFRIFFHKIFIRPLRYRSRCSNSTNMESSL
Human DP1 receptor, sequence (Q13258 whole entry): as above

Row | solubility at 16 h [1] [µM] | IC50 (DP receptor) [nM] | IC50 (CYP3A4) [nM] | IC50 (CYP1A2) [nM] | IC50 (CYP2C9) [nM] | IC50 (CRTH2) [nM] | IC50 (CYP2C19) [nM] | IC50 (Human DP1 receptor; [3]) [nM] | IC50 (Human DP1 receptor; [4]) [nM] | remaining rate after reaction (result heading prints '% inhibition') [2] [%] | Compound
1 | > 50 |  | > 20000 | > 20000 | > 20000 | 210 | > 20000 |  | < 100 | 86.9 | CC(C)Oc1ccc(S(=O)(=O)N2C[C@@H](C)[C@@H](n3nc(CC(=O)O)c4ccc(F)cc43)C2)cn1 [Compound I-57]
2 | > 50 | 68 | > 20000 | > 20000 | > 20000 | 230 | > 20000 | 40 | < 100 | 99.3 | CCOc1ccc(S(=O)(=O)N2C[C@@H](C)[C@@H](n3nc(CC(=O)O)c4ccccc43)C2)cn1 [Compound I-96]

Second part, the compound before the results:

Row | Compound | solubility at 16 h [1] [µM] | IC50 (DP receptor) [nM] | IC50 (CYP3A4) [nM] | IC50 (CYP1A2) [nM] | IC50 (CYP2C9) [nM] | IC50 (CRTH2) [nM] | IC50 (CYP2C19) [nM] | IC50 (Human DP1 receptor; [3]) [nM] | IC50 (Human DP1 receptor; [4]) [nM] | remaining rate after reaction (result heading prints '% inhibition') [2] [%]
3 | CC(C)Oc1ccc(S(=O)(=O)N2C[C@H](n3nc(CC(=O)O)c4ccc(F)cc43)C[C@H]2C#N)cc1 [Compound I-7] | > 50 | 26 | > 20000 | > 20000 | > 20000 | 33 | > 20000 | 23 | < 100 | 
4 | CC(C)Oc1ccc(S(=O)(=O)N2C[C@@H](C)[C@@H](n3nc(CC(=O)O)c4ccc(F)cc43)C2)cc1 [Compound I-37] | > 50 | 71 | > 20000 | > 20000 | > 20000 | 50 | > 20000 | 10 | < 100 | 
5 | CC(C)Oc1ccc(S(=O)(=O)N2C[C@@H](C)[C@@H](n3nc(CC(=O)O)c4ccc(F)cc43)C2)c(F)c1 [Compound I-52] | > 50 |  | > 20000 | > 20000 | > 20000 | 140 | > 20000 |  | < 100 | 97.2
